Strand notation (5' to 3'): a small letter for the sugar, then the base; units joined by * are phosphorothioate-linked, units joined directly phosphodiester-linked; [ ] holds rarer units or linkages, { } end groups; capitals alone tell only the bases. k = constrained ethyl (cEt); [5mC] = 5-methylcytosine; d = 2'-deoxy (DNA)
Test system: Yap1 mRNA
Experiment: Antisense inhibition of human Yap1 in A-431 cells by cEt gapmers, single dose (Example 3, RTS36584)
Type: cell-based
Outline: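 A-431 cells (5,000/well) took up the 3-10-3 cEt gapmers by free uptake at 2,000 nM for about 48 h. Yap1 mRNA was measured by RT-qPCR with primer probe set RTS36584, normalized to RiboGreen total RNA, and given as % of untreated control.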

[1] = Table 8, A-431 cells, 5,000 cells per well, free uptake, 2,000 nM, approximately 48 hours, RTS36584, normalized to RIBOGREEN, Yap1 mRNA relative to untreated control cells
[2] = Table 26, Yap1 mRNA by 3-10-3 cEt gapmers targeting SEQ ID NO.: 1, and 2, percent of untreated control
[3] = Table 9, A-431 cells, 5,000 cells per well, free uptake, 2,000 nM, approximately 48 hours, RTS36584, normalized to RIBOGREEN, Yap1 mRNA relative to untreated control cells
[4] = Table 10, A-431 cells, 5,000 cells per well, free uptake, 2,000 nM oligonucleotide, approx. 48 hours, primer probe set RTS36584, Yap1 mRNA normalized to RIBOGREEN, percent of untreated control
[5] = Table 28, Yap1 mRNA as percent of untreated control, 3-10-3 cEt gapmers targeting SEQ ID NO.: 1, and 2
[6] = Table 13, A-431 cells, 5,000 cells per well, free uptake, 2,000 nM modified oligonucleotide, approx. 48 hours, RTS36584, normalized to RIBOGREEN, Yap1 mRNA relative to untreated control cells
[7] = Table 34, Yap1 mRNA as percent of untreated control, 3-10-3 cEt gapmers targeting SEQ ID NO: 1 and 2, single dose
[8] = Table 11, A-431 cells, 5,000 cells per well, free uptake, 2,000 nM oligonucleotide, approx. 48 hours, primer probe set RTS36584, Yap1 mRNA normalized to RIBOGREEN, percent of untreated control
[9] = Table 29, Yap1 mRNA as percent of untreated control, 3-10-3 cEt gapmers targeting SEQ ID NO.: 1, and 2
[10] = Table 35, Yap1 mRNA as percent of untreated control, 3-10-3 cEt gapmers targeting SEQ ID NO: 1 and 2, single dose

958379 (antisense kG*k[5mC]*kG*d[5mC]*d[5mC]*d[5mC]*dG*d[5mC]*d[5mC]*d[5mC]*dG*d[5mC]*dA*k[5mC]*k[5mC]*kG) [Compound 958379]
YAP1 (% UTC) [1]: 124 % UTC

958381 (antisense kT*k[5mC]*k[5mC]*dT*d[5mC]*dT*dG*d[5mC]*dG*d[5mC]*dG*d[5mC]*d[5mC]*k[5mC]*kG*k[5mC]) [Compound 958381]
YAP1 (% UTC) [1]: 146 % UTC

1075180 (kT*kA*kT*dT*dA*d[5mC]*dT*dA*d[5mC]*dA*dA*d[5mC]*d[5mC]*kA*kT*kA; antisense) [compound 1075180]
YAP1 (% UTC) [2]: 56 % UTC

958596 (kA*kG*k[5mC]*dA*dG*dT*dT*dA*dA*dG*d[5mC]*dA*d[5mC]*kT*kT*kT; antisense) [Compound 958596]
YAP1 (% UTC) [3]: 3 % UTC

958627 (antisense kT*kT*kG*dG*dG*d[5mC]*dA*dA*dA*dG*dT*dT*d[5mC]*k[5mC]*kT*kA) [Compound 958627]
YAP1 (% UTC) [4]: 61 % UTC

1076302 (kA*kA*kT*dA*dA*dG*d[5mC]*d[5mC]*dT*d[5mC]*dA*d[5mC]*d[5mC]*kT*kT*kT; antisense) [compound 1076302]
YAP1 (% UTC) [5]: 74 % UTC

958370 (antisense k[5mC]*kT*kT*dT*dA*dT*d[5mC]*dT*dA*dG*d[5mC]*dT*dT*kG*kG*kT) [Compound 958370]
YAP1 (% UTC) [1]: 7 % UTC

958802 (antisense kA*kG*kA*dT*dA*dA*dT*d[5mC]*dA*dT*d[5mC]*d[5mC]*dT*k[5mC]*kA*kA) [Compound 958802]
YAP1 (% UTC) [4]: 25 % UTC

958485 (kA*kG*kA*dG*dG*dT*d[5mC]*dA*dG*d[5mC]*dA*dA*dT*kA*k[5mC]*kA; antisense) [Compound 958485]
YAP1 (% UTC) [6]: 3 % UTC

1075444 (antisense kA*kT*kA*dA*dA*dT*d[5mC]*d[5mC]*dT*d[5mC]*dA*dT*dG*kT*kG*kG) [compound 1075444]
YAP1 (% UTC) [7]: 112 % UTC

958703 (antisense kG*kA*kT*dA*dA*d[5mC]*dT*dA*dA*dG*d[5mC]*dA*d[5mC]*kT*kA*k[5mC]) [Compound 958703]
YAP1 (% UTC) [8]: 49 % UTC

958616 (antisense kG*kG*kT*dG*dG*dT*d[5mC]*dT*dT*dG*dT*dT*d[5mC]*kT*kT*kA) [Compound 958616]
YAP1 (% UTC) [3]: 10 % UTC

1075692 (kT*kA*kA*dG*dA*dA*d[5mC]*dA*d[5mC]*d[5mC]*dA*dT*dA*kG*k[5mC]*kA; antisense) [compound 1075692]
YAP1 (% UTC) [2]: 11 % UTC

958813 (kT*kT*kA*d[5mC]*dA*dG*dA*dG*dA*dG*dA*dT*dT*k[5mC]*kA*kT; antisense) [Compound 958813]
YAP1 (% UTC) [8]: 8 % UTC

1074191 (antisense kA*k[5mC]*kG*dG*d[5mC]*dG*dG*dG*d[5mC]*d[5mC]*d[5mC]*dT*dG*k[5mC]*k[5mC]*k[5mC]) [compound 1074191]
YAP1 (% UTC) [9]: 80 % UTC

1074292 (antisense k[5mC]*kT*kG*dT*dT*dT*d[5mC]*dA*d[5mC]*dT*dG*dG*dA*kG*k[5mC]*kA) [compound 1074292]
YAP1 (% UTC) [7]: 10 % UTC

1074389 (kG*k[5mC]*kA*dG*dA*d[5mC]*dT*dT*dG*dG*d[5mC]*dA*dT*k[5mC]*kA*kG; antisense) [compound 1074389]
YAP1 (% UTC) [10]: 14 % UTC

1074220 (antisense kA*kA*kT*dG*dA*dG*d[5mC]*dT*d[5mC]*dG*dA*dA*d[5mC]*kA*kT*kG) [compound 1074220]
YAP1 (% UTC) [2]: 22 % UTC

1075279 (antisense k[5mC]*kT*kA*dT*dA*d[5mC]*dT*dA*dA*d[5mC]*dA*dT*dT*k[5mC]*kA*k[5mC]) [compound 1075279]
YAP1 (% UTC) [9]: 52 % UTC

958691 (antisense kT*k[5mC]*kA*dG*dT*dT*dG*dG*d[5mC]*dA*dA*d[5mC]*dA*kG*kT*k[5mC]) [Compound 958691]
YAP1 (% UTC) [3]: 20 % UTC

1074197 (antisense kT*kG*k[5mC]*d[5mC]*d[5mC]*dG*dG*dG*dT*d[5mC]*d[5mC]*dG*dG*kA*k[5mC]*kG) [compound 1074197]
YAP1 (% UTC) [10]: 91 % UTC

1076429 (k[5mC]*kA*kT*dT*dA*d[5mC]*dA*dA*dG*d[5mC]*dA*dT*dA*kG*kG*k[5mC]; antisense) [compound 1076429]
YAP1 (% UTC) (Table 27, Yap1 mRNA by 3-10-3 cEt gapmers targeting SEQ ID NO.: 1, and 2, percent of untreated control): 26 % UTC

1076047 (kA*k[5mC]*kT*dT*dA*dA*dA*dT*dG*dG*dT*dG*d[5mC]*kA*kA*kT; antisense) [compound 1076047]
YAP1 (% UTC) [9]: 34 % UTC

1074581 (DNA kA*kA*k[5mC]*d[5mC]*dA*d[5mC]*dT*dA*dT*dA*dA*dA*dG*k[5mC]*kT*kT; antisense) [compound 1074581]
YAP1 (% UTC) [10]: 18 % UTC

958377 (antisense kG*k[5mC]*kT*dG*dG*dG*dA*dT*dT*dG*dA*dT*dA*kT*kT*k[5mC]) [Compound 958377]
YAP1 (% UTC) [1]: 9 % UTC

958409 (antisense kT*kT*kA*d[5mC]*d[5mC]*dA*dA*dA*dA*d[5mC]*dG*dA*dG*kG*kG*kT) [Compound 958409]
YAP1 (% UTC) [1]: 99 % UTC

958610 (antisense kA*kG*kG*dT*dA*dA*d[5mC]*dA*dT*dT*dG*dG*dT*kA*k[5mC]*kT) [Compound 958610]
YAP1 (% UTC) [6]: 34 % UTC

958362 (antisense kA*kG*k[5mC]*dT*d[5mC]*dG*dA*dA*d[5mC]*dA*dT*dG*d[5mC]*kT*kG*kT) [Compound 958362]
YAP1 (% UTC) [1]: 58 % UTC

1075796 (kA*kG*kT*dA*dA*dT*dT*dA*dT*dA*dT*dA*d[5mC]*k[5mC]*k[5mC]*kA; antisense) [compound 1075796]
YAP1 (% UTC) [7]: 64 % UTC

1075311 (antisense kA*kG*kT*dA*dA*dT*dT*dA*dA*dA*d[5mC]*dG*dA*kA*kA*k[5mC]) [compound 1075311]
YAP1 (% UTC) [9]: 100 % UTC

1075407 (antisense kG*kA*kA*d[5mC]*dT*dA*dT*dA*dT*dA*dA*d[5mC]*d[5mC]*kT*kG*kA) [compound 1075407]
YAP1 (% UTC) [9]: 32 % UTC

958441 (antisense kG*k[5mC]*kG*dA*d[5mC]*dG*dG*d[5mC]*dT*dG*d[5mC]*dG*dG*kG*k[5mC]*k[5mC]) [Compound 958441]
YAP1 (% UTC) [3]: 72 % UTC

1076116 (kG*kA*kA*dA*dA*dT*dA*dG*d[5mC]*d[5mC]*d[5mC]*dA*dT*kT*kA*kG; antisense) [compound 1076116]
YAP1 (% UTC) [7]: 25 % UTC

958436 (antisense kT*k[5mC]*k[5mC]*d[5mC]*dT*dT*dG*dA*d[5mC]*dG*dG*dA*dG*kG*k[5mC]*k[5mC]) [Compound 958436]
YAP1 (% UTC) [3]: 124 % UTC

1075182 (kG*kA*kT*dA*dT*dT*dA*dT*dA*dT*dT*dA*d[5mC]*kT*kA*k[5mC]; antisense) [compound 1075182]
YAP1 (% UTC) [5]: 61 % UTC

1076276 (k[5mC]*kT*kT*dT*dA*dG*dG*dA*dG*dT*d[5mC]*dA*dG*kA*kA*k[5mC]; antisense) [compound 1076276]
YAP1 (% UTC) [7]: 59 % UTC

958726 (antisense k[5mC]*kT*kG*dT*d[5mC]*dA*dG*dT*dT*dA*dT*d[5mC]*d[5mC]*kT*kA*kT) [Compound 958726]
YAP1 (% UTC) [3]: 3 % UTC

1075790 (kT*k[5mC]*kA*dG*dA*dA*dG*dA*dA*d[5mC]*dT*d[5mC]*d[5mC]*k[5mC]*kA*kT; antisense) [compound 1075790]
YAP1 (% UTC) [5]: 14 % UTC

1074703 (antisense k[5mC]*kG*kG*dT*dG*dT*dA*dA*dG*dA*d[5mC]*dA*dA*kG*kT*k[5mC]) [compound 1074703]
YAP1 (% UTC) [9]: 16 % UTC

1074828 (kA*kT*kA*dA*dA*dA*dT*d[5mC]*d[5mC]*dA*d[5mC]*d[5mC]*dT*kG*kA*kG; antisense) [compound 1074828]
YAP1 (% UTC) [2]: 58 % UTC

1074988 (antisense kA*k[5mC]*k[5mC]*dG*d[5mC]*dG*dG*d[5mC]*dG*dG*dA*dG*dT*kG*kG*kA) [compound 1074988]
YAP1 (% UTC) [2]: 94 % UTC

1075919 (antisense kT*k[5mC]*kT*dT*dA*dA*dA*d[5mC]*dT*dA*dA*d[5mC]*dT*kG*kT*kT) [compound 1075919]
YAP1 (% UTC) [9]: 78 % UTC

1076212 (k[5mC]*kA*kA*dA*dT*dT*dT*dA*dT*dA*dT*dG*d[5mC]*kT*k[5mC]*k[5mC]; antisense) [compound 1076212]
YAP1 (% UTC) [7]: 15 % UTC

958608 (antisense kT*kG*kA*dT*dA*dG*dG*d[5mC]*dA*d[5mC]*dA*d[5mC]*d[5mC]*k[5mC]*kA*k[5mC]) [Compound 958608]
YAP1 (% UTC) [8]: 11 % UTC

958564 (kT*k[5mC]*k[5mC]*dA*dA*dA*dT*dT*dG*dA*dA*dG*dG*kG*k[5mC]*k[5mC]; antisense) [Compound 958564]
YAP1 (% UTC) (Table 12, A-431 cells, 5,000 cells per well, free uptake, 2,000 nM modified oligonucleotide, approx. 48 hours, RTS36584, normalized to RIBOGREEN, Yap1 mRNA relative to untreated control cells): 62 % UTC

1074158 (kG*kA*kG*d[5mC]*dG*dA*dG*dG*dG*d[5mC]*dT*dA*d[5mC]*kG*k[5mC]*k[5mC]; antisense) [compound 1074158]
YAP1 (% UTC) [5]: 72 % UTC

From patent US11214803B2, “Modulators of YAP1 expression” (Ionis Pharmaceuticals, Inc., priority 2019, dated 2022)
